Source: PubChem BioAssay AID2060899 (Molecular Pharmacology Branch, DTP, NCI, 2025)
Each block holds one compound with its values, some of them ahead of it.

System: 565726-208-R1-J5-PDC complex spheroids, growth inhibition
Assay: Anticancer human tumor 565726-208-R1-J5-PDC patient-derived pancreatic adenocarcinoma cell line growth inhibition [RAS]
Conditions: for IC50: curve of first compound; for viability, T/C: stronger effect = lower value
How it was run: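 Agents were tested in combination matrices in half-log decrements from a top concentration at or near clinical Cmax (10 microM if undetermined). Targets were multi-cell spheroids of tumour lines plus HUVEC and MSC stromal cells.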

[1] = second compound 0.0316 µM, first compound 0.00316 µM
[2] = second compound 0.0316 µM, first compound 0.01 µM
[3] = second compound 0.0316 µM, first compound 0.0316 µM
[4] = second compound 0.0316 µM, first compound 0.1 µM
[5] = second compound 0.0316 µM, first compound 0.316 µM
[6] = second compound 0.0316 µM, first compound 1 µM
[7] = second compound 0.1 µM, first compound 0.00316 µM
[8] = second compound 0.1 µM, first compound 0.01 µM
[9] = second compound 0.1 µM, first compound 0.0316 µM
[10] = second compound 0.1 µM, first compound 0.1 µM
[11] = second compound 0.1 µM, first compound 0.316 µM
[12] = second compound 0.1 µM, first compound 1 µM
[13] = second compound 0.316 µM, first compound 0.00316 µM
[14] = second compound 0.316 µM, first compound 0.01 µM
[15] = second compound 0.316 µM, first compound 0.0316 µM
[16] = second compound 0.316 µM, first compound 0.1 µM
[17] = second compound 0.316 µM, first compound 0.316 µM
[18] = second compound 0.316 µM, first compound 1 µM
[19] = second compound 1 µM, first compound 0.00316 µM
[20] = second compound 1 µM, first compound 0.01 µM
[21] = second compound 1 µM, first compound 0.0316 µM
[22] = second compound 1 µM, first compound 0.1 µM
[23] = second compound 1 µM, first compound 0.316 µM
[24] = second compound 1 µM, first compound 1 µM
[25] = second compound 0.00316 µM, first compound 0.00316 µM
[26] = second compound 0.00316 µM, first compound 0.01 µM
[27] = second compound 0.00316 µM, first compound 0.0316 µM
[28] = second compound 0.00316 µM, first compound 0.1 µM
[29] = second compound 0.00316 µM, first compound 0.316 µM
[30] = second compound 0.00316 µM, first compound 1 µM
[31] = second compound 0.01 µM, first compound 0.00316 µM
[32] = second compound 0.01 µM, first compound 0.01 µM
[33] = second compound 0.01 µM, first compound 0.0316 µM
[34] = second compound 0.01 µM, first compound 0.1 µM
[35] = second compound 0.01 µM, first compound 0.316 µM
[36] = second compound 0.01 µM, first compound 1 µM
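Also: spheroids exposed to compounds for seven days before readout.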
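For viability, T/C in this document: 100% = DMSO vehicle control viability.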

IC50 (second compound 0.0316 µM): > 1000 nM
IC50 (second compound 0.1 µM): > 1000 nM
IC50 (second compound 0.316 µM): > 1000 nM
IC50 (second compound 1 µM): > 1000 nM
IC50 (second compound 3.16 µM): > 1000 nM
IC50 (second compound 10 µM): > 1000 nM
SMILES: C=CC(=O)N1CCN(c2nc(OCC3CCCN3C)nc3c(F)c(-c4nc(N)cc(C)c4C(F)(F)F)c(Cl)cc23)C(C)C1 (stereo not drawn) + C#Cc1c(F)ccc2cc(O)cc(-c3ncc4c(N5CC6CCC(C5)N6)nc(OCC56CCCN5CC(F)C6)nc4c3F)c12
viability, T/C [1]: 95.7%
viability, T/C [2]: 138%
viability, T/C [3]: 98.9%
viability, T/C [4]: 103%
viability, T/C [5]: 87%
viability, T/C [6]: 104%
viability, T/C [7]: 101%
viability, T/C [8]: 124%
viability, T/C [9]: 90.8%
viability, T/C [10]: 94.2%
viability, T/C [11]: 110%
viability, T/C [12]: 106%
viability, T/C [13]: 94.2%
viability, T/C [14]: 132%
viability, T/C [15]: 84.7%
viability, T/C [16]: 107%
viability, T/C [17]: 87.7%
viability, T/C [18]: 113%
viability, T/C [19]: 88.8%
viability, T/C [20]: 113%
viability, T/C [21]: 81.3%
viability, T/C [22]: 77.1%
viability, T/C [23]: 82.8%
viability, T/C [24]: 84.2%
viability, T/C (second compound 3.16 µM, first compound 0.00316 µM): 65.5%
viability, T/C (second compound 3.16 µM, first compound 0.01 µM): 88.7%
viability, T/C (second compound 3.16 µM, first compound 0.0316 µM): 70%
viability, T/C (second compound 3.16 µM, first compound 0.1 µM): 65.6%
viability, T/C (second compound 3.16 µM, first compound 0.316 µM): 83%
viability, T/C (second compound 3.16 µM, first compound 1 µM): 93.5%
viability, T/C (second compound 10 µM, first compound 0.00316 µM): 52.3%
viability, T/C (second compound 10 µM, first compound 0.01 µM): 73.5%
viability, T/C (second compound 10 µM, first compound 0.0316 µM): 78.3%
viability, T/C (second compound 10 µM, first compound 0.1 µM): 72.4%
viability, T/C (second compound 10 µM, first compound 0.316 µM): 69.5%
viability, T/C (second compound 10 µM, first compound 1 µM): 71%

IC50 (second compound 0.0316 µM): 6.41 nM
IC50 (second compound 0.1 µM): 6.67 nM
IC50 (second compound 0.316 µM): 6.82 nM
IC50 (second compound 1 µM): 7.75 nM
IC50 (second compound 3.16 µM): 11.6 nM
IC50 (second compound 10 µM): 2.98 nM
SMILES: CC1(C)CCC(Nc2ncc(C(F)(F)F)c(-c3c[nH]c4c(P(C)(C)=O)c(C#N)ccc34)n2)CN1 (stereo not drawn) + C#Cc1c(F)ccc2cc(O)cc(-c3ncc4c(N5CC6CCC(C5)N6)nc(OCC56CCCN5CC(F)C6)nc4c3F)c12
viability, T/C (second compound 0.0316 µM, first compound 0.000949 µM): 87.7%
viability, T/C (second compound 0.0316 µM, first compound 0.003 µM): 75.5%
viability, T/C (second compound 0.0316 µM, first compound 0.00949 µM): 36.9%
viability, T/C (second compound 0.0316 µM, first compound 0.03 µM): 33.9%
viability, T/C (second compound 0.0316 µM, first compound 0.0949 µM): 35.6%
viability, T/C (second compound 0.0316 µM, first compound 0.3 µM): 36.8%
viability, T/C (second compound 0.1 µM, first compound 0.000949 µM): 77.7%
viability, T/C (second compound 0.1 µM, first compound 0.003 µM): 64%
viability, T/C (second compound 0.1 µM, first compound 0.00949 µM): 44.5%
viability, T/C (second compound 0.1 µM, first compound 0.03 µM): 35.6%
viability, T/C (second compound 0.1 µM, first compound 0.0949 µM): 39.9%
viability, T/C (second compound 0.1 µM, first compound 0.3 µM): 40.6%
viability, T/C (second compound 0.316 µM, first compound 0.000949 µM): 75%
viability, T/C (second compound 0.316 µM, first compound 0.003 µM): 68.5%
viability, T/C (second compound 0.316 µM, first compound 0.00949 µM): 42.5%
viability, T/C (second compound 0.316 µM, first compound 0.03 µM): 42.2%
viability, T/C (second compound 0.316 µM, first compound 0.0949 µM): 43.7%
viability, T/C (second compound 0.316 µM, first compound 0.3 µM): 37.6%
viability, T/C (second compound 1 µM, first compound 0.000949 µM): 65.7%
viability, T/C (second compound 1 µM, first compound 0.003 µM): 64.6%
viability, T/C (second compound 1 µM, first compound 0.00949 µM): 46.1%
viability, T/C (second compound 1 µM, first compound 0.03 µM): 44.3%
viability, T/C (second compound 1 µM, first compound 0.0949 µM): 54%
viability, T/C (second compound 1 µM, first compound 0.3 µM): 43%
viability, T/C (second compound 3.16 µM, first compound 0.000949 µM): 60%
viability, T/C (second compound 3.16 µM, first compound 0.003 µM): 59.3%
viability, T/C (second compound 3.16 µM, first compound 0.00949 µM): 46.5%
viability, T/C (second compound 3.16 µM, first compound 0.03 µM): 45.3%
viability, T/C (second compound 3.16 µM, first compound 0.0949 µM): 50.4%
viability, T/C (second compound 3.16 µM, first compound 0.3 µM): 45.7%
viability, T/C (second compound 10 µM, first compound 0.000949 µM): 62.6%
viability, T/C (second compound 10 µM, first compound 0.003 µM): 50.2%
viability, T/C (second compound 10 µM, first compound 0.00949 µM): 47.2%
viability, T/C (second compound 10 µM, first compound 0.03 µM): 47.4%
viability, T/C (second compound 10 µM, first compound 0.0949 µM): 52.6%
viability, T/C (second compound 10 µM, first compound 0.3 µM): 46.5%

IC50 (second compound 0.00316 µM): > 1000 nM
IC50 (second compound 0.01 µM): > 1000 nM
IC50 (second compound 0.0316 µM): > 1000 nM
IC50 (second compound 0.1 µM): > 1000 nM
IC50 (second compound 0.316 µM): > 1000 nM
IC50 (second compound 1 µM): > 1000 nM
SMILES: C=CC(=O)Nc1cc(Nc2nccc(-c3cn(C)c4ccccc34)n2)c(OC)cc1N(C)CCN(C)C + C=CC(=O)N1CCN(c2nc(OCC3CCCN3C)nc3c(F)c(-c4nc(N)cc(C)c4C(F)(F)F)c(Cl)cc23)C(C)C1
viability, T/C [25]: 105%
viability, T/C [26]: 171%
viability, T/C [27]: 121%
viability, T/C [28]: 90.5%
viability, T/C [29]: 94.2%
viability, T/C [30]: 121%
viability, T/C [31]: 137%
viability, T/C [32]: 150%
viability, T/C [33]: 106%
viability, T/C [34]: 94.1%
viability, T/C [35]: 80.9%
viability, T/C [36]: 128%
viability, T/C [1]: 168%
viability, T/C [2]: 157%
viability, T/C [3]: 88.9%
viability, T/C [4]: 105%
viability, T/C [5]: 87.6%
viability, T/C [6]: 114%
viability, T/C [7]: 135%
viability, T/C [8]: 162%
viability, T/C [9]: 124%
viability, T/C [10]: 87.1%
viability, T/C [11]: 82%
viability, T/C [12]: 108%
viability, T/C [13]: 161%
viability, T/C [14]: 152%
viability, T/C [15]: 99.8%
viability, T/C [16]: 106%
viability, T/C [17]: 74.8%
viability, T/C [18]: 141%
viability, T/C [19]: 145%
viability, T/C [20]: 159%
viability, T/C [21]: 101%
viability, T/C [22]: 115%
viability, T/C [23]: 87.3%
viability, T/C [24]: 109%

IC50 (second compound 0.00316 µM): 460 nM
IC50 (second compound 0.01 µM): 290 nM
IC50 (second compound 0.0316 µM): > 1000 nM
IC50 (second compound 0.1 µM): 365 nM
IC50 (second compound 0.316 µM): > 1000 nM
IC50 (second compound 1 µM): 759 nM
SMILES: O=C(c1ccc(F)c(F)c1Nc1ccc(I)cc1F)N1CC(O)([C@@H]2CCCCN2)C1 + C=CC(=O)N1CCN(c2nc(OCC3CCCN3C)nc3c(F)c(-c4nc(N)cc(C)c4C(F)(F)F)c(Cl)cc23)C(C)C1
viability, T/C [25]: 105%
viability, T/C [26]: 142%
viability, T/C [27]: 73.3%
viability, T/C [28]: 78.3%
viability, T/C [29]: 58.1%
viability, T/C [30]: 39.1%
viability, T/C [31]: 120%
viability, T/C [32]: 141%
viability, T/C [33]: 88.3%
viability, T/C [34]: 71.3%
viability, T/C [35]: 56.6%
viability, T/C [36]: 30.1%
viability, T/C [1]: 146%
viability, T/C [2]: 174%
viability, T/C [3]: 75.4%
viability, T/C [4]: 82.4%
viability, T/C [5]: 56.4%
viability, T/C [6]: 38.1%
viability, T/C [7]: 138%
viability, T/C [8]: 137%
viability, T/C [9]: 91.1%
viability, T/C [10]: 69.8%
viability, T/C [11]: 60%
viability, T/C [12]: 36.3%
viability, T/C [13]: 154%
viability, T/C [14]: 139%
viability, T/C [15]: 73.1%
viability, T/C [16]: 71.3%
viability, T/C [17]: 56.7%
viability, T/C [18]: 38.9%
viability, T/C [19]: 137%
viability, T/C [20]: 137%
viability, T/C [21]: 82.2%
viability, T/C [22]: 85.9%
viability, T/C [23]: 61.2%
viability, T/C [24]: 50.3%
